Source: US20260209301A1, “Galanin-2 Receptor Agonists” (LIFEARC, priority 2022, published 2026)
Read-outs that look alike come from different tables or passages of the source.

Assays:
[1] = tested on: mouse CCI model of neuropathic pain; type: in vivo; conditions: for minimal effective dose (at 4 hrs): von Frey, 4 hrs post-dose
Description: The Chronic Constriction Injury (CCI) model of neuropathic pain involves unilateral loose ligation of four ligatures around the left sciatic nerve at mid-thigh level spaced 1 mm apart (Chaplan S R, et al J Neurosci Methods. 1994 July; 53(1):55-63). This procedure results in the development of hyperalgesia, allodynia and spontaneous pain (ectopic discharges) which can be measured using mechanical and thermal behavioural assessments. […] The mouse CCI model of neuropathic pain differs from that of the rat by virtue of 3 ligatures around the sciatic nerve instead of 4.
Static mechanical tactile allodynia: Static mechanical (tactile) allodynia was assessed by measurement of withdrawal threshold using calibrated (force; g) von-Frey monofilaments (Touch-Test Sensory Evaluator; Scientific Marketing Associates) applied to the plantar surface of the hindpaw. The animals were placed in individual Perspex boxes on a raised metal mesh for 30-40 min before the test. A series of graduated von Frey hairs (0.07, 0.16, 0.4, 0.6 and 1 g) was applied in sequence with a protocol of 1 sec on 1 sec off repeated 10 times. Each hair was applied perpendicularly to the centre of the ventral surface of the paw until it bent slightly. The force applied to the hind-paw of the animal to induce 5 responses out of 10 trials was recorded as paw withdrawal threshold (PWT).
Baseline PWT was assessed on three consecutive days (Day-2, Day-1 and Day 0) and the mean of the last two readings used as the baseline withdrawal threshold.
On Day 1, neuropathic pain was induced via ligation of the sciatic nerve using three loose ligatures of prolene sutures (Chronic Constriction Injury). Under Isoflurane anaesthesia mixed with oxygen (3:1, 1 L/min) the left hind leg was shaved mid-thigh level and an incision made through the skin using a scalpel. The biceps femoris muscle layer was dissected by making an initial incision using a pair of sharp scissors, which was then widened using a pair of blunt scissors. The common sciatic nerve was exposed using a pair of forceps and 3 loose ligatures of prolene (7-0, Ethicon) were tied around the sciatic nerve with 1 mm spacing between each. The nerve was then returned below the muscle layer and the wound closed using absorbable sutures (Vicryl).
Von Frey assessment of mechanical allodynia was taken on days 19 and 22. Animals were then ranked and randomised (based on a Latin square design) to treatment groups according to the percentage change (compared to pre-surgery baseline) of the mean mechanical withdrawal threshold observed on days 19 and 22. Only those animals showing a PWT percentage change of >60% from pre-surgery baseline were included in the study.
Dosing took place on day 23 with either vehicle, test compound (i.p.) or Pregabalin (15 mg/kg p.o.) at 10 ml/kg. Allodynia was then assessed at intervals thereafter e.g. 2, 4 and 24 hours post dose. von Frey measurement continued until activity disappeared up to day 27.
For studies involving a repeat administration, dosing took place on day 23 with either vehicle, test compound (i.p.) or Pregabalin (15 mg/kg p.o.) at 10 mL/kg. Allodynia was then assessed at intervals thereafter e.g. 4, 24 and 48 hours post dose. Animals were re-dosed at 68, 116, 164, 212, 260, 308 hours, with von Frey measurements conducted 4 hrs after each administration. Allodynia was therefore measured at 72, 120, 168, 216, 264, and 312 hours post initial dose, equating to repeat dosing 2, 3, 4, 5, 6 and 7 times, respectively
Evaluation of study & Statistical analysis: vF withdrawal threshold (g) was assessed by a series of graduated von Frey hairs (0.07, 0.16, 0.4, 0.6 and 1 g) applied in sequence to the ipsilateral hindpaw with a protocol of 1 sec on 1 sec off repeated 10 times. Each hair was applied perpendicularly to the centre of the ventral surface of the paw until it bent slightly. […]

cynomolgus GalR2 = experiment: Calcium assay at orthologue receptor; type: cell-based, Macaca fascicularis; conditions: Table 8; Calcium assays; mean +/− standard deviation
Description: (§1) These species were chosen as they represent potential downstream in vivo models to be used. Within native galanin amino acid residues 1-15 are conserved across species, we would therefore expect the Gal FC fusions comprising amino acids 2 to 13 to retain GalR2 activity in these species. Calcium imaging was used to define receptor activity.

mouse GalR2 = biological target: T1, mouse GalR2 (Mus musculus, UniProt O88854); experiment: Calcium assay at orthologue receptor; type: cell-based; conditions: Table 8; Calcium assays; mean +/− standard deviation
T1 sequence (O88854 1-371): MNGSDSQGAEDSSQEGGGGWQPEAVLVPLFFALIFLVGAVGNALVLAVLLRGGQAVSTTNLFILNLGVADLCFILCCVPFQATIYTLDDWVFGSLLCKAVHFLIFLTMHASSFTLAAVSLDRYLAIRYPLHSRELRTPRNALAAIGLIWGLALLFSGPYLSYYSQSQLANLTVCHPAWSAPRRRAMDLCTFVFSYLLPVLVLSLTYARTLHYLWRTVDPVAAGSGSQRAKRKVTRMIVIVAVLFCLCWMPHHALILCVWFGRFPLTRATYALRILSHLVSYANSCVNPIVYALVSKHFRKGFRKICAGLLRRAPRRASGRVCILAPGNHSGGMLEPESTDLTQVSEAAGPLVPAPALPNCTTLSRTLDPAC
Description: as §1

GALR2 = biological target: T2, GALR2 (Homo sapiens, UniProt O43603); experiment: β-arrestin recruitment, PathHunter CHO-K1 GALR2 cells; type: cell-based; conditions: Table 2; mean +/− standard deviation, n ≥ 3
T2 sequence (O43603 1-387): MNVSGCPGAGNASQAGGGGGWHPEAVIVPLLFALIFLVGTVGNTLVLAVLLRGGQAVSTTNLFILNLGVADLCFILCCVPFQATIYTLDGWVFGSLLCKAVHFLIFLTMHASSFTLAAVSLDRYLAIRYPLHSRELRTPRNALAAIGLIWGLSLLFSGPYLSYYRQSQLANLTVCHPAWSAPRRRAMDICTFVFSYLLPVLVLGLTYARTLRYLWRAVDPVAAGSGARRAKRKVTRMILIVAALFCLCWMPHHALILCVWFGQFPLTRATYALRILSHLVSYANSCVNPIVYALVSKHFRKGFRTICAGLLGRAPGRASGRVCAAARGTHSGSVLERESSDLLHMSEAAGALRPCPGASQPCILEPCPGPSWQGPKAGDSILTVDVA
Procedure: Ligands were prepared at half log dilutions using cell plating reagent 2. 5 μl of each ligand was added to cells and plates incubated at 37° C. for 90 minutes. DiscoverX PathHunter detection kit (DiscoverX, USA) was added to cells as described my manufacturer's guidelines and plates incubated for 60 minutes at room temperature in the dark. Chemiluminescent signal was measured using the PHERAstar FS (BMG, Germany).

Row | Substance | reversal of CCI-induced mechanical hyperalgesia ([1]; 3, 10 and 30 mg/kg i.p., 2 and 4 hrs) | effect on CCI-induced mechanical hyperalgesia at 24 hrs ([1]; 24 hrs, any of the doses tested (1-30 mg/kg i.p.)) | minimal effective dose (at 4 hrs) ([1]; mouse CCI) [mg/kg i.p.] | Cynomolgus GalR2 activity (cynomolgus GalR2) | Mouse GalR2 activity (mouse GalR2) | GalR2 Beta Arrestin, mean pEC50 (GALR2) | effect on withdrawal threshold, low dose ([1]; 0.03 mg/kg i.p., 4 hours) | effect on withdrawal threshold, low dose ([1]; 0.1 mg/kg, 24 hours) | effect-desensitisation on repeat administration ([1]; 0.3 and 1 mg/kg i.p., re-dosed days 3-13) | duration of statistically significant reversal of mechanical hyperalgesia ([1]; mouse CCI, highest and lowest doses tested) | Minimum Effective Dose [MED] ([1]; mouse CCI, multiple studies taken collectively) [mg/kg i.p.] | sustained reversal on repeat dosing, duration ([1]; mouse CCI, repeat dosing) [days] | minimal effective dose ([1]; mouse CCI, study with 1, 3, 10 and 30 mg/kg i.p.) [mg/kg i.p.] | sedation (observational during testing) ([1]; mouse, in vivo)
1 | Gal2-30FC: galanin 2-30, AEAAAKEAAAKA linker, human IgG1 FC; SEQ ID NO: 28 | efficacious and reversed CCI-induced mechanical hyperalgesia | not at 24 hrs | 3 | 8.4 +/− 0.1 | 7.0 +/− 0.1 | 7.3 +/− 0.2 | – | – | – | – | – | – | – | –
2 | Gal2-13FC: galanin 2-13, AEAAAKEAAAKA linker, human IgG1 FC; SEQ ID NO: 7 | – | – | 0.03 | 7.7 +/− 0.4 | 6.4 +/− 0.3 | 6.7 +/− 0.2 | effective | statistically significant | no loss of effect | up to 96 hrs post-dose | ≤ 0.03 | ≥ 13 | ≤ 1 | not associated with overt sedation
